For the assay, the target named is T1, KRas-G12D (Homo sapiens, UniProt P01116, G12D).
T1 construct: insert the HiBiT tag onto the N-terminus of one or more of the endogenous KRas alleles; host or cells: AsPC-1 HiBiT-KRasG12D knock-in clone (one tagged allele, two untagged KRasG12D alleles)
Description: HiBiT Degradation Assay (G12D), AsPC-1 HiBiT-KRasG12D cells, 24 hr. Format: cell-based. The following applies: for Dmax: ASPC1, AsPC-1 cells, maximum degradation observed; for DC50: AsPC-1 cells. The essentials:
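Degradation was read after 24 hr compound exposure (0.5% DMSO, 37° C) by Nano-Glo HiBiT lytic luminescence in AsPC-1 cells carrying a HiBiT tag on one of three KRasG12D alleles. Signal relative to DMSO gave DC50 and Dmax by 4-parameter fit; alamar blue fluorescence monitored cytotoxicity.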

Bounds are passed on as bounds.

In general, Dmax refers to the greatest extent of degradation seen. Higher therefore signals deep degradation. Usually DC50 stands for the midpoint of the concentration-degradation curve. A higher DC50 goes with degradation only at high concentration.

T1 sequence (P01116 1-188 isoform P01116-2 G12D): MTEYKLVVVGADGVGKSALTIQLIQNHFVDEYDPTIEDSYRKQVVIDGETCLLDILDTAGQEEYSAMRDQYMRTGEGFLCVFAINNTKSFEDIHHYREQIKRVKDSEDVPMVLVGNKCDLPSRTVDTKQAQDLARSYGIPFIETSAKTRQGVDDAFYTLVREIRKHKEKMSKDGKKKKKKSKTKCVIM

Regarding `C#Cc1c(F)ccc2cc(O)cc(-c3ncc4c(N5CC6CCC(C5)N6)nc(OCCN5CCC(CN6CCC(CN7CCN(c8ccc9c(c8F)CN(C8CCC(=O)NC8=O)C9=O)CC7)CC6)CC5)nc4c3F)c12` (stereo not shown) [Compound 223, 3-{5-[4-({1-[(1-{2-[(4-{3,8-diazabicyclo[3.2.1]octan-3-yl}-7-(8-ethynyl-7-fluoro-3-hydroxynaphthalen-1-yl)-8-fluoropyrido[4,3-d]pyrimidin-2-yl)oxy]ethyl}piperidin-4-yl)methyl]piperidin-4-yl}methyl)piperazin-1-yl]-4-fluoro-1-oxo-2,3-dihydro-1H-isoindol-2-yl}piperidine-2,6-dione], the Dmax is over 70% and the DC50 was under 5.1 µM.

Turning to `C#Cc1c(F)ccc2cc(O)cc(-c3ncc4c(N5CC6CCC(C5)N6)nc(OC[C@@H]5C[C@@H](OC6CCN(CC7CCN(c8ccc9c(c8F)n(C(C)C)c(=O)n9C8CCC(=O)NC8=O)CC7)CC6)CN5C)nc4c3F)c12` (stereo partly drawn) [Compound 224, 3-(5-{4-[(4-{[(3R,5S)-5-{[(4-{3,8-diazabicyclo[3.2.1]octan-3-yl}-7-(8-ethynyl-7-fluoro-3-hydroxynaphthalen-1-yl)-8-fluoropyrido[4,3-d]pyrimidin-2-yl)oxy]methyl}-1-methylpyrrolidin-3-yl]oxy}piperidin-1-yl)methyl]piperidin-1-yl}-4-fluoro-2-oxo-3-(propan-2-yl)-2,3-dihydro-1H-1,3-benzodiazol-1-yl)piperidine-2,6-dione], the Dmax was over 70% and the DC50 is under 5.1 µM.

In the case of `C#Cc1c(F)ccc2cc(O)cc(-c3ccc4c(N5CC6CCC(C5)N6)nc(OCCN5CCN(CC6CCN(CC7CCN(c8ccc9c(c8)n(C)c(=O)n9C8CCC(=O)NC8=O)CC7)CC6)CC5(C)C)nc4c3F)c12` (stereo not shown) [Compound 227], the DC50 is under 5.1 µM.

`C#Cc1c(F)ccc2cccc(-c3ncc4c(N5CC6CCC(C5)N6)nc(OCC5(CN6CCC(F)(CN7CCN(c8ccc9c(c8)n(C)c(=O)n9C8CCC(=O)NC8=O)CC7)CC6)CC5)nc4c3F)c12` (stereo not shown) [Compound 228, 3-[5-[4-[[1-[[1-[[4-(3,8-diazabicyclo[3.2.1]octan-3-yl)-7-(8-ethynyl-7-fluoro-1-naphthyl)-8-fluoro-pyrido[4,3-d]pyrimidin-2-yl]oxymethyl]cyclopropyl]methyl]-4-fluoro-4-piperidyl]methyl]piperazin-1-yl]-3-methyl-2-oxo-benzimidazol-1-yl]piperidine-2,6-dione] yielded a DC50 of under 5.1 µM.

In turn, `C#Cc1c(F)ccc2cc(O)cc(-c3ncc4c(N5CC6CCC(C5)N6)nc(OCC5(CN6CCC(CC7CCN(CC8CN(c9ccc%10c(c9)n(C)c(=O)n%10C9CCC(=O)NC9=O)C8)CC7)CC6)CC5)nc4c3F)c12` (stereo not shown) [Compound 229, 3-[5-[3-[[4-[[1-[[1-[[4-(3,8-diazabicyclo[3.2.1]octan-3-yl)-7-(8-ethynyl-7-fluoro-3-hydroxy-1-naphthyl)-8-fluoro-pyrido[4,3-d]pyrimidin-2-yl]oxymethyl]cyclopropyl]methyl]-4-piperidyl]methyl]-1-piperidyl]methyl]azetidin-1-yl]-3-methyl-2-oxo-benzimidazol-1-yl]piperidine-2,6-dione] returned a Dmax of over 70% and a DC50 of under 5.1 µM.

Regarding `C#Cc1c(F)ccc2cc(O)cc(-c3ncc4c(N5CC6CCC(C5)N6)nc(CCCN5CCC(CC6CCN(CC7CCN(c8ccc9c(c8)n(C)c(=O)n9C8CCC(=O)NC8=O)CC7)CC6)CC5)nc4c3F)c12` (stereo not shown) [Compound 230, 3-[5-[4-[[4-[[1-[3-[4-(3,8-diazabicyclo[3.2.1]octan-3-yl)-7-(8-ethynyl-7-fluoro-3-hydroxy-1-naphthyl)-8-fluoro-pyrido[4,3-d]pyrimidin-2-yl]propyl]-4-piperidyl]methyl]-1-piperidyl]methyl]-1-piperidyl]-3-methyl-2-oxo-benzimidazol-1-yl]piperidine-2,6-dione], the DC50 is under 5.1 µM.

For the compound `C#Cc1c(F)ccc2cc(O)cc(-c3ccc4c(N5CC6CCC(C5)N6)nc(OCCN5CCC(CN6CCC(CC7CCN(c8ccc9c(c8F)n(C)c(=O)n9C8CCC(=O)NC8=O)CC7)CC6)CC5)nc4c3F)c12` (stereo not shown) [Compound 231], the Dmax was over 70% and the DC50 is under 5.1 µM.

Compound `C#Cc1c(F)ccc2cc(O)cc(-c3ccc4c(N5CC6CCC(C5)N6)nc(OCCN5CCC(CC6CCN(CC7CCN(c8ccc9c(c8F)n(C)c(=O)n9C8CCC(=O)NC8=O)CC7)CC6)CC5)nc4c3F)c12` (stereo not shown) [Compound 232] registered a Dmax of over 70% and a 50% degradation concentration (DC50) of under 5.1 µM.

On to `C#Cc1c(F)ccc2cc(O)cc(-c3ccc4c(N5CC6CCC(C5)N6)nc(OCCN5CCC(CN6CCC(CC7CCN(c8ccc9c(c8)n(C)c(=O)n9C8CCC(=O)NC8=O)CC7)CC6)CC5)nc4c3F)c12` (stereo not shown) [Compound 233], for which the Dmax is over 70% and the DC50 was under 5.1 µM.

Consider `C#Cc1c(F)ccc2cccc(-c3ncc4c(N5CC6CCC(C5)N6)nc(OC[C@@]56CCCN5[C@H](CN5CCN(CC7CCN(c8ccc9c(c8)n(C)c(=O)n9C8CCC(=O)NC8=O)CC7)CC5)CC6)nc4c3F)c12` (stereo partly shown) [Compound 234], for which the greatest degradation seen (Dmax) was over 70% and the DC50 was under 5.1 µM.

Take `C#Cc1c(F)ccc2cc(O)cc(-c3ncc4c(N5CC6CCC(C5)N6)nc(N5CC[C@@H](N6CCC(CC7CCN(c8ccc9c(c8)n(C)c(=O)n9C8CCC(=O)NC8=O)CC7)CC6)C5)nc4c3F)c12` (stereo partly drawn) [Compound 236, 3-[5-[4-[[1-[(3R)-1-[4-(3,8-diazabicyclo[3.2.1]octan-3-yl)-7-(8-ethynyl-7-fluoro-3-hydroxy-1-naphthyl)-8-fluoro-pyrido[4,3-d]pyrimidin-2-yl]pyrrolidin-3-yl]-4-piperidyl]methyl]-1-piperidyl]-3-methyl-2-oxo-benzimidazol-1-yl]piperidine-2,6-dione]: the Dmax was over 70% and the DC50 is under 5.1 µM.

In turn, `C#Cc1c(F)ccc2cc(O)cc(-c3ccc4c(N5CC6CCC(C5)N6)nc(OCCN5CCC(CC6CCN(CC7CCN(c8ccc9c(c8)n(C)c(=O)n9C8CCC(=O)NC8=O)CC7)CC6)CC5)nc4c3F)c12` (stereo not shown) [Compound 237] showed a Dmax of over 70% and a DC50 of under 5.1 µM.

Turning to `C#Cc1c(F)ccc2cccc(-c3ncc4c(N5CC6CCC(C5)N6)nc(OC[C@@]56CCCN5[C@H](CN5CCN(CC7CCN(c8ccc9c(c8F)CN(C8CCC(=O)NC8=O)C9=O)CC7)CC5)CC6)nc4c3F)c12` (stereo partly shown) [Compound 238], the Dmax was over 70% and the half-maximal degradation concentration (DC50) was under 5.1 µM.

`C#Cc1c(F)ccc2cc(O)cc(-c3ncc4c(N5CC6CCC(C5)N6)nc(OCCN5CCC(CN6CCN(CC7CCN(c8ccc9c(c8F)CN(C8CCC(=O)NC8=O)C9=O)CC7)CC6(C)C)CC5)nc4c3F)c12` (stereo not shown) [Compound 239, 3-[5-[4-[[4-[[1-[2-[4-(3,8-diazabicyclo[3.2.1]octan-3-yl)-7-(8-ethynyl-7-fluoro-3-hydroxy-1-naphthyl)-8-fluoro-pyrido[4,3-d]pyrimidin-2-yl]oxyethyl]-4-piperidyl]methyl]-3,3-dimethyl-piperazin-1-yl]methyl]-1-piperidyl]-4-fluoro-1-oxo-isoindolin-2-yl]piperidine-2,6-dione] returned a Dmax of over 70% and a half-maximal degradation concentration (DC50) of under 5.1 µM.
